Laboratory results: US10030064B2, “Mammalian cell culture processes for protein production” (priority 2009, dated 2018)

Key:
[1] = test system: CHO DG44 cell line expressing the fusion glycoprotein; assay: Shake flask CHO culture: total sialic acid content, N-linked and O-linked oligosaccharide profile of the secreted fusion glycoprotein; assay type: cell-based, Chinese hamster
Protocol: The CHO cell line used in this study was originally subcloned from DG44 parental cells and cultured in a proprietary protein-free growth medium.
The experiments were carried out in 250-mL shake flasks (VWR international) with starting volumes of 100 mL and initial cell densities of 6×10^5 cells/mL. The cultures were placed on a shaker platform (VWR international) at 150 rpm and maintained at 37° C. and 6% CO2 for ten days. The cultures were sampled daily and the pH was adjusted as needed using 1M sodium carbonate and fed with glucose and glutamine every two days in order to maintain them at adequate levels. Cell density and viability were measured offline using a Cedex automated cell counter (Innovatis AG, Bielefeld, Germany). Culture pH and concentrations for glucose and glutamine were measured off-line using a Bioprofile Analyzer 400 (Nova Biomedical Corporation, Waltham, Mass.).
The sialic acid to recombinant protein molar ratio was calculated by determining the sialic acid and recombinant protein concentrations. Sialic acid (SA), including N-Acetylneuraminic (Neu5Ac) and N-glycolylneuraminic acid (Neu5Gc), was released by partial acid hydrolysis. The derivatives were then separated by reversed-phase HPLC to determine sialic acid content. The protein concentrations were determined by UV absorbance at 280 nm. Sialic acid content is reported as molar ratios, which is the total moles of Neu5Ac and Neu5Gc per mole of recombinant glycoprotein. Sialic acid contents are reported as normalized values, which are the actual values divided by an arbitrary value. The same divisor was used to normalize all sialic acid content data in the studies reported here.
High-pH anion-exchange chromatography with pulsed amperometric detection (HPAEC-PAD) was used for the profiling of N-linked oligosaccharides (Base and Spellman 1990; Townsend and Hardy 1991) to provide information on site-specific N-linked glycosylation. N-linked oligosaccharides were cleaved from protein and separated on HPAEC-PAD into four domains based on the amount of sialic acid present. Domain I represents the asialo species. Domains II, III, and IV are sialylated species and represent monosialylated, disialylated, and tri- and tetrasialylated species, respectively. N-linked sialylated species fraction is reported as the percentage of N-linked sialylated species within the total N-linked oligosaccharides species, which includes both asialo and sialylated species. N-linked sialylated species fractions are reported as normalized values, which are the actual values divided by an arbitrary value. The same divisor was used to normalize all N-linked sialylated species fraction data in the studies reported here.
O-linked glycosylation was characterized by intact mass analysis of a reference standard and Protein-A purified samples of the fusion protein (Reference). Samples were diluted in 100 mM Tris, 25 mM NaCl, pH 7.6 and incubated with PNGase F overnight to enzymatically remove all N-linked oligosaccharides. Samples were then injected for intact mass analysis after mixing with an internal standard of insulin. O-linked sialic acid content is reported as molar ratios, which is the moles of O-linked sialic acid per mole of recombinant glycoprotein.
This study was performed in duplicate 250-mL shake flasks using the culture conditions as described above. […] Cultures were harvested on day 10, and the fusion protein was purified using a protein A column and analyzed for total sialic acid content, O-linked sialic acid content and the N-linked profile.

sialidase = assay: Sialidase activity in culture supernatant (Amplex Red Neuraminidase assay); assay type: cell-based, Chinese hamster; conditions: 1 μM DEX from day 2, absorbance at 560 nm
Protocol: Sialidase activity was analyzed using the Amplex Red Neuraminidase (Sialidase) Assay Kit (Invitrogen, Carlsbad, Calif.). Briefly, neuraminidase in the sample is used to desialylate fetuin. This assay utilizes Amplex Red to detect H2O2 generated by oxidation of the desialylated galactose residues on the fetuin by galactose oxidase. The H2O2, in the presence of HRP, reacts stoichiometrically with Amplex Red reagent to generate the red-fluorescent oxidation product, resorufin 5, which is then analyzed either fluorometrically or spectrophotometrically. In each assay, 50 μL of working solution (100 μM Amplex Red, 0.2 U/mL HRP, 4 U/mL galactose oxidase and 500 μg/mL fetuin) was added into each microplate well containing 50 μL of diluted cell culture supernatant. After 30 minutes incubation at 37° C., samples were analyzed for absorbance at 560 nm using a microplate reader.
As shown in FIG. 2A and FIG. 2B, increased sialidase activity was associated with the decreased cell viabilities in both the DEX-treated and untreated cultures.

[2] = 0.1 μM DEX, with 1 μM RU-486 added 24 hours before DEX
[3] = DEX 0.01 μM added day 2, harvest day 10
[4] = DEX 0.1 μM added day 2, harvest day 10
[5] = DEX 1.0 μM added day 2, harvest day 10
[6] = DEX 10 μM added day 2, harvest day 10

With `C[C@@H]1C[C@H]2[C@@H]3CCC4=CC(=O)C=C[C@]4(C)[C@@]3(F)[C@@H](O)C[C@]2(C)[C@@]1(O)C(=O)CO` [DEX, dexamethasone] the “normalized N-linked sialylated species fraction” value [1, 2] was 81.5±0.8, the “normalized total sialic acid content” value [1, 2] was 12.7±0.1 and the “normalized N-linked sialylated species fraction” value ([1]; 0.1 μM DEX, without RU-486) was 92.2±2.0. For the same molecule, the “Percent increase of N-link asialo-” value [1, 3] was −8.6%, the “Percent increase of N-link-Di-” value [1, 3] was 13.9% and the “Percent increase of N-link-Mono-” value [1, 3] was 6.6%. For the same molecule, the “Percent increase of N-link-Tri and tetra-” value [1, 3] was 4.5%, the “Percent increase of O-link SA” value [1, 3] was 0.0% and the “Percent increase of SA” value ([1]; DEX 0.01 μM added day 2, harvest day 10, vs control) was 9.3%. For the same molecule, the “Percent increase of N-link asialo-” value [1, 4] was −9.6%, the “Percent increase of N-link-Di-” value [1, 4] was 13.9% and the “Percent increase of N-link-Mono-” value [1, 4] was 7.3%. The “Percent increase of N-link-Tri and tetra-” value [1, 4] was 13.6%, the “Percent increase of O-link SA” value [1, 4] was 0.5% and the “Percent increase of SA” value ([1]; DEX 0.1 μM added day 2, harvest day 10, vs control) was 13.0%. For the same molecule, the “Percent increase of N-link asialo-” value [1, 5] was −10.0%, the “Percent increase of N-link-Di-” value [1, 5] was 19.4% and the “Percent increase of N-link-Mono-” value [1, 5] was 4.3%. The “Percent increase of O-link SA” value [1, 5] was 0.9%, the “Percent increase of SA” value ([1]; DEX 1.0 μM added day 2, harvest day 10, vs control) was 13.0% and the “Percent increase of N-link asialo-” value [1, 6] was −15.6%. For the same molecule, the “Percent increase of N-link-Di-” value [1, 6] was 24.3%, the “Percent increase of N-link-Mono-” value [1, 6] was 7.3% and the “Percent increase of N-link-Tri and tetra-” value [1, 6] was 20.5%. The “Percent increase of O-link SA” value [1, 6] was 0.0%, the “Percent increase of SA” value ([1]; DEX 10 μM added day 2, harvest day 10, vs control) was 20.4% and the “absorbance measurement of sialidase activity” value (sialidase; day 4) was 0.006±0.002. For the same molecule, the “absorbance measurement of sialidase activity” value (sialidase; day 10) was 0.024±0.003.
